Drawing on PubChem BioAssay AID256 (DTP/NCI, 2004), this text covers T/C for nine compounds.

The structures appear in SMILES notation. Where “and” joins values, the source holds several entries; their conditions need not be identical. Identical values can stand only once. Toxic doses and inconclusive results are not listed.

This assay relates to CD2F1 mice, L1210 leukemia ip, survival T/C. Nature of the assay: NCI In Vivo Anticancer Drug Screen. Data for tumor model L1210 Leukemia (intraperitoneal) in CD2F1 (CDF1) mice. The conditions noted are these: higher = longer survival. The procedure, abridged: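 Tumor-bearing mice (transplanted tumor) were split into treated and vehicle control groups, and the measured endpoint of each treated group was divided by that of its vehicle controls.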

As for `CNNCc1ccc(C(=O)NC(N)=O)cc1`, the T/C (endpoint: mean survival time, dose: 8.0 mg/kg/injection, schedule: Q03HX024 (ip), vehicle: saline) was 124 % of control; the T/C (endpoint: mean survival time, dose: 16.0 mg/kg/injection, schedule: Q01DX005 (iv), vehicle: saline) was 123 % of control; the T/C (endpoint: mean survival time, dose: 16.0 mg/kg/injection, schedule: Q03HX008 (ip), vehicle: saline) is 112 % of control; the T/C (endpoint: mean survival time, dose: 16.0 mg/kg/injection, schedule: Q03HX016 (ip), vehicle: saline) is 110 % of control; the T/C (endpoint: mean survival time, dose: 16.0 mg/kg/injection, schedule: Q03HX024 (ip), vehicle: saline) was 124 % of control; the T/C (endpoint: mean survival time, dose: 32.0 mg/kg/injection, schedule: Q01DX005 (iv), vehicle: saline) was 119 % of control. Further, the T/C was 119 % of control (endpoint: mean survival time, dose: 32.0 mg/kg/injection, schedule: Q01DX008 (ip), vehicle: saline); 115 % of control (endpoint: mean survival time, dose: 32.0 mg/kg/injection, schedule: Q03HX008 (ip), vehicle: saline); 120 % of control (endpoint: mean survival time, dose: 32.0 mg/kg/injection, schedule: Q03HX016 (ip), vehicle: saline); 112 % of control (endpoint: mean survival time, dose: 64.0 mg/kg/injection, schedule: Q01DX005 (iv), vehicle: saline); 117 % of control (endpoint: mean survival time, dose: 64.0 mg/kg/injection, schedule: Q03HX008 (ip), vehicle: saline); 121 % of control (endpoint: mean survival time, dose: 64.0 mg/kg/injection, schedule: Q04DX003 (ip), vehicle: saline). The T/C was 107 % of control (endpoint: mean survival time, dose: 128.0 mg/kg/injection, schedule: Q01DX001 (ip), vehicle: saline); 103 % of control (endpoint: mean survival time, dose: 128.0 mg/kg/injection, schedule: Q01DX001 (iv), vehicle: saline); 114 % of control (endpoint: mean survival time, dose: 128.0 mg/kg/injection, schedule: Q01DX001 (oral), vehicle: saline); 122 % of control (endpoint: mean survival time, dose: 128.0 mg/kg/injection, schedule: Q01DX005 (iv), vehicle: saline); 164 % of control (endpoint: mean survival time, dose: 128.0 mg/kg/injection, schedule: Q01DX009 (oral), vehicle: saline); 118 % of control (endpoint: mean survival time, dose: 128.0 mg/kg/injection, schedule: Q04DX003 (ip), vehicle: saline). Also, the T/C was 116 % of control (endpoint: mean survival time, dose: 128.0 mg/kg/injection, schedule: Q08DX002 (ip), vehicle: saline); 162 % of control (endpoint: mean survival time, dose: 222.0 mg/kg/injection, schedule: Q01DX Z (ip), vehicle: saline); 120 % of control (endpoint: mean survival time, dose: 256.0 mg/kg/injection, schedule: Q01DX001 (ip), vehicle: saline); 106 % of control (endpoint: mean survival time, dose: 256.0 mg/kg/injection, schedule: Q01DX001 (iv), vehicle: saline); 117 % of control (endpoint: mean survival time, dose: 256.0 mg/kg/injection, schedule: Q01DX001 (oral), vehicle: saline); 169 % of control (endpoint: mean survival time, dose: 256.0 mg/kg/injection, schedule: Q01DX009 (oral), vehicle: saline). Further, the T/C is 121 % of control (endpoint: mean survival time, dose: 256.0 mg/kg/injection, schedule: Q04DX003 (ip), vehicle: saline); 123 % of control (endpoint: mean survival time, dose: 256.0 mg/kg/injection, schedule: Q08DX002 (ip), vehicle: saline); 120 % of control (endpoint: mean survival time, dose: 333.0 mg/kg/injection, schedule: Q01DX Z (ip), vehicle: saline); 124 % of control (endpoint: mean survival time, dose: 512.0 mg/kg/injection, schedule: Q01DX001 (ip), vehicle: saline); 114 % of control (endpoint: mean survival time, dose: 512.0 mg/kg/injection, schedule: Q01DX001 (iv), vehicle: saline); 118 % of control (endpoint: mean survival time, dose: 512.0 mg/kg/injection, schedule: Q08DX002 (ip), vehicle: saline).

Consider `C/C=C(/c1ccccc1)c1ccc(N(C)C)cc1`, for which the T/C (endpoint: mean survival time, dose: 100.0 mg/kg/injection, schedule: Q04DX003 (ip), vehicle: saline with Tween-80) is 98 % of control; the T/C (endpoint: mean survival time, dose: 200.0 mg/kg/injection, schedule: Q04DX003 (ip), vehicle: saline with Tween-80) was 91 % of control; the T/C (endpoint: mean survival time, dose: 400.0 mg/kg/injection, schedule: Q04DX003 (ip), vehicle: saline with Tween-80) was 91 % of control.

Regarding `Cc1cc(=S)[nH]c2ccccc12`, the T/C runs as follows: (endpoint: mean survival time, dose: 37.5 mg/kg/injection, schedule: Q01DX009 (ip), vehicle: saline) 91 % of control; (endpoint: mean survival time, dose: 75.0 mg/kg/injection, schedule: Q01DX009 (ip), vehicle: saline) 91 % of control; (endpoint: mean survival time, dose: 150.0 mg/kg/injection, schedule: Q01DX009 (ip), vehicle: saline) 96 % of control.

As for `C=Cc1cc[n+](CCCCCC[n+]2ccc(C=C)cc2)cc1`, the T/C is 92 % of control (endpoint: mean survival time, dose: 100.0 mg/kg/injection, schedule: Q01DX001 (ip), vehicle: saline); 92 % of control (endpoint: mean survival time, dose: 200.0 mg/kg/injection, schedule: Q01DX001 (ip), vehicle: saline); 88 % of control (endpoint: mean survival time, dose: 400.0 mg/kg/injection, schedule: Q01DX001 (ip), vehicle: saline).

Regarding `CNC1CCC(C(=O)O)CC1` (stereo unspecified), the T/C reads like this: (endpoint: mean survival time, dose: 100.0 mg/kg/injection, schedule: Q01DX009 (ip), vehicle: saline) 107 % of control; (endpoint: mean survival time, dose: 200.0 mg/kg/injection, schedule: Q01DX009 (ip), vehicle: saline) 103 % of control; (endpoint: mean survival time, dose: 400.0 mg/kg/injection, schedule: Q01DX009 (ip), vehicle: saline) 96 % of control.

Regarding `C/C(=C\CC(=O)C/C=C(\C)CCCC(C)CCCC(C)CCCC(C)C)CCCC(C)CCCC(C)CCCC(C)C` (stereo unspecified), the T/C is, setting by setting: (endpoint: mean survival time, dose: 100.0 mg/kg/injection, schedule: Q04DX002 (ip), vehicle: saline with Tween-80) 103 % of control; (endpoint: mean survival time, dose: 200.0 mg/kg/injection, schedule: Q04DX002 (ip), vehicle: saline with Tween-80) 103 % of control; (endpoint: mean survival time, dose: 400.0 mg/kg/injection, schedule: Q04DX002 (ip), vehicle: saline with Tween-80) 96 % of control.

With `CC(N)(CCOCc1ccccc1)C(=O)O` (stereo unspecified), the T/C (endpoint: mean survival time, dose: 100.0 mg/kg/injection, schedule: Q01DX001 (ip), vehicle: saline with Tween-80) is 97 % of control; the T/C (endpoint: mean survival time, dose: 100.0 mg/kg/injection, schedule: Q01DX009 (ip), vehicle: saline with Tween-80) is 103 % of control; the T/C (endpoint: mean survival time, dose: 200.0 mg/kg/injection, schedule: Q01DX001 (ip), vehicle: saline with Tween-80) was 96 % of control; the T/C (endpoint: mean survival time, dose: 200.0 mg/kg/injection, schedule: Q01DX009 (ip), vehicle: saline with Tween-80) was 101 % of control; the T/C (endpoint: mean survival time, dose: 400.0 mg/kg/injection, schedule: Q01DX001 (ip), vehicle: saline with Tween-80) is 103 % of control; the T/C (endpoint: mean survival time, dose: 400.0 mg/kg/injection, schedule: Q01DX009 (ip), vehicle: saline with Tween-80) is 101 % of control.

As for `C=CCNC(=O)C[n+]1cccc(C(=O)NC)c1`, the T/C runs as follows: (endpoint: mean survival time, dose: 100.0 mg/kg/injection, schedule: Q04DX003 (ip), vehicle: saline) 100 % of control; (endpoint: mean survival time, dose: 200.0 mg/kg/injection, schedule: Q04DX003 (ip), vehicle: saline) 102 % of control; (endpoint: mean survival time, dose: 400.0 mg/kg/injection, schedule: Q04DX003 (ip), vehicle: saline) 102 % of control.

As to `CCO[C@@H]1c2cc3c(cc2[C@@H](c2cc(OC)c(O)c(OC)c2)[C@H]2C(=O)OC[C@@H]21)OCO3`, the T/C is 108 % of control (endpoint: median survival time, dose: 0.65 mg/kg/injection, schedule: Q01DX009 (ip), vehicle: saline with Tween-80); 109 % of control (endpoint: median survival time, dose: 1.25 mg/kg/injection, schedule: Q01DX009 (ip), vehicle: saline with Tween-80); 106 % of control (endpoint: median survival time, dose: 2.5 mg/kg/injection, schedule: Q01DX009 (ip), vehicle: saline with Tween-80); 101 % of control (endpoint: median survival time, dose: 5.0 mg/kg/injection, schedule: Q01DX009 (ip), vehicle: saline with Tween-80); 100 % of control and 109 % of control (endpoint: median survival time, dose: 10.0 mg/kg/injection, schedule: Q01DX009 (ip), vehicle: saline with Tween-80); 94 % of control (endpoint: median survival time, dose: 20.0 mg/kg/injection, schedule: Q01DX009 (ip), vehicle: saline with Tween-80). Also, under “endpoint: median survival time, dose: 40.0 mg/kg/injection, schedule: Q01DX009 (ip), vehicle: saline with Tween-80”, the T/C was 97 % of control.
